Data: the NIST ThermoML archive (doi:10.1021/acs.jced.5b00355)
± gives the expanded uncertainty stated by the source.

Test: cn = amount concentration of the nth substance listed, in mol/dm3
Conditions: 298.2 K, 101 kPa, Liquid, Pycnometric method

`Nc1nnc(-c2cccc(Cl)c2Cl)c(N)n1` [lamotrigine] + CC(C)=O showed a mass density (c1 = 0.0167) of 852.8 ± 6.9 kg/m3.

In the case of `Nc1nnc(-c2cccc(Cl)c2Cl)c(N)n1` [lamotrigine] + CCCO, the mass density (c1 = 0.0245) is reported as 893.8 ± 7.2 kg/m3.

In the case of `Nc1nnc(-c2cccc(Cl)c2Cl)c(N)n1` [lamotrigine] + CCO, the mass density (c1 = 0.0134) is reported as 851.7 ± 6.8 kg/m3.

Work on `Nc1nnc(-c2cccc(Cl)c2Cl)c(N)n1` [lamotrigine] + CCOC(C)=O yielded a mass density (c1 = 0.0106) of 995.4 ± 8 kg/m3.

In the case of `Nc1nnc(-c2cccc(Cl)c2Cl)c(N)n1` [lamotrigine] + CO, the mass density (c1 = 0.0199) is reported as 834.7 ± 6.7 kg/m3.
